Experimental data taken from patent publication US20110311457A1, “METHODS FOR IMAGING VASCULAR INFLAMMATION USING IMPROVED NANOPARTICLE CONTRAST AGENTS” (NANOSCAN IMAGING, LLC, priority 2007, published 2011).

Experiments:
[1] = Particle size during milling, PCS; assay type: physicochemical
Description: This is the most widely used technique for particle size density determination and there are two main variations: photon correlation spectroscopy (PCS), and Fraunhofer Diffraction (FD). The choice is dictated by the particle size range under investigation. PCS works for sizes from a few nanometers up to about 1 micron (1000 nm), and FD works from about 1 micron up to millimeters. Both methods are called “ensemble averaging methods.” This means that the two relevant pieces of information needed to describe the particle size density (the actual size and the amount of material at that size) need to be deconvoluted from a single measurement of the amount of light scattered. This involves application of extremely complex theory and equally complex deconvolution algorithms (Kerker, M. (1969) The Scattering of Light and other Electromagnetic Radiation. Academic Press, New York). Thus, both measurement variations are intrinsically low resolution: typically the best that can be achieved is to differentiate between two class sizes (Weiner, B. B. (1984) Modern Methods of Particle Sizing. Barth, H. (ed). Wiley-Interscience). A technical issue arises when the particle size density extends across the one micron point, because then the two different algorithms/theories need to be applied and these cannot be combined together. Attempts to do so result in artifacts in the particle size density such that commercial instruments smooth the data resulting in even less resolution. Being based on light scattering, the fundamental value obtained is an “intensity-weighted” number (Di). Transforming the Di value into a Dv value presents several challenges. The first is that, in addition to the assumption of sphereicity, both PCS and FD weight the intensity differently, and the second is that the transform necessitates application of scattering and efficiency corrections (Weiner, B. B., Fairhurst, D., and Tscharnuter, W. W. (1991) Particle Size Distribution II—Assessment and Characterization. Provder, T. (ed). ACS Symposium Series No. 472. American Chemical Society). Although such corrections can be calculated from Mie theory (Kerker, M. (1969) The Scattering of Light and other Electromagnetic Radiation. Academic Press, New York), they are particle size dependent and require knowledge of the optical properties (complex refractive index) of both the particles and the surrounding medium. The result is that the Dv value (and if further transforms are made to Ds and Dn) can be widely inaccurate. However, for quality control purposes the technique is extremely fast and, for measurements on the same material, extremely reproducible. Laser light scattering may also be referred to as Dynamic Light Scattering (DLS) and generally refers to the PCS technique. Asymmetrical flow field-flow-fractionation (AF4) is a newer method based on light scattering which may be employed. The benefit A4F is that the method is able to separate nanoparticle mixtures prior to DLS analysis.
(§1) N1177 was milled to the desired particle size distribution. The particle size during milling was monitored in a preliminary study by periodically measuring particle size using XDC and PCS instruments.

rabbit VX2-tumor = experiment: CT tumor perfusion imaging in a tumor bearing rabbit; assay type: in vivo; conditions: for HU value, ROI 1 Tumor vessel / HU value, ROI 2 Vessel / HU value, ROI 3 Tumor vital tissue / HU value, ROI 4 Tumor necrotic tissue / HU value, ROI 5 Whole tumor: 300 mgI/kg b.w.
Description: The goal of the study was to explore the potential of different contrast media to visualize tumor perfusion.

[2] = Particle size during milling, XDC; assay type: physicochemical
Description: In one embodiment, XDC (X-ray disc centrifuge sedimentometry) is used to measure particle size distribution. This is one of the most precise methods available for inorganic materials. The technique is based on the fact that particles of a different size (and of the same density) will take different times to travel between two points under the same force (e.g., gravity, centrifugal force): a larger particle will travel faster than a small particle. The derivation of the Stokes' equation for centrifugal sedimentation has been described many times in the literature (Thomas, J. C., and Fairhurst, D. (1991) Surface Phenomena and Fine Particles in Water-based Coatings and Paints. Sharma, M. K., and Micale, F. J. (eds), Plenum Press, New York). The relationship between size and the time taken is a square function. Thus, if a particle of (for example) one micron, takes one second to traverse a given distance, a 0.1 micron particle will take 100 seconds. With a distribution a particle sizes, the particles will effectively fractionate as they move under the proscribed (centrifugal) force. Because time can be measured extremely precisely, the sizes detected can be measured with great precision. The method used to determine the “amount” of material at any given size is X-ray absorbtion. For many inorganic materials, X-rays are absorbed in proportion to mass. The particle size density is therefore “mass-weighted.” Since, for a given particle density, mass is proportional to volume, a “volume-weighted” value (Dv) can be calculated for particle size density. Making the assumption that the particles are spherical, Dv can be transformed into either a surface-weighted value (Ds) or a number-weighted value (Dn). The latter number can be compared with the size determined from electron microscopy. For particle sizes in the colloidal domain (less than 1 micron), the assumption of sphericity is quite reasonable and becomes more so as the particle size gets smaller into the deep sub-micron (<100 nm) and the true nanometer (ca 10 nm) range. The size range that can be accommodated in XDC measurements is dictated only by the width of the particle size density, e.g., how long the measurement will take. The XDC method can be quite time consuming for a very broad particle size density.
as §1

erythrocytes = experiment: Influence on erythrocyte morphology (damage index) in vitro; assay type: cell-based, human; conditions: final conc. 52.86 mg I/mL, value in % of maximal damage index
Method: Effects on red blood cells can be monitored in vitro, by exposing human blood to contrast agents, monitoring the appearance of deformed erythrocytes and deriving a “damage index” (D.I.) immediately after exposure, 1 and 2 hours after incubation. Parameters: Morphological changes of blood erxthrocytes;

SPF-mice = conditions: established marketed contrast media, comparison value; cited from earlier work

CCOC(=O)CCCCCOC(=O)c1c(I)c(NC(C)=O)c(I)c(NC(C)=O)c1I [Compound N1177, 6-ethoxy-6-oxohexy-3,5-bis(acetylamino)-2,4,6-triiodobenzoate]
Mean Effective Diameter (PCS) ([1]; Milled Day 3): 158 nm
Mean Effective Diameter (PCS) ([1]; Milled Day 4): 151 nm
Mean Effective Diameter (PCS) ([1]; Milled Day 5): 149 nm
Mean Effective Diameter (PCS) ([1]; Milled Day 6): 148 nm
Mean Effective Diameter (PCS) ([1]; Milled Day 7): 147 nm
Mean Effective Diameter (PCS) ([1]; T = 0 (unmilled)): 236 nm
HU value, ROI 1 Tumor vessel (rabbit VX2-tumor): 81 HU
HU value, ROI 2 Vessel (rabbit VX2-tumor): 307 HU
HU value, ROI 3 Tumor vital tissue (rabbit VX2-tumor): 5 HU
HU value, ROI 4 Tumor necrotic tissue (rabbit VX2-tumor): 9 HU
HU value, ROI 5 Whole tumor (rabbit VX2-tumor): 13 HU
Mean Size DN (XDC) ([2]; Milled Day 3): 84 nm
Mean Size DV (XDC) ([2]; Milled Day 3): 148 nm
Mean Size DN (XDC) ([2]; Milled Day 5): 79 nm
Mean Size DV (XDC) ([2]; Milled Day 5): 143 nm
Mean Size DN (XDC) ([2]; Milled Day 7): 77 nm
Mean Size DV (XDC) ([2]; Milled Day 7): 138 nm
Mean Size DN (XDC) ([2]; T = 0 (unmilled)): 173 nm
Mean Size DV (XDC) ([2]; T = 0 (unmilled)): 424 nm

COCC(=O)Nc1c(I)c(C(=O)NCC(O)CO)c(I)c(C(=O)N(C)CC(O)CO)c1I (centres unmarked) [Ultravist]
HU value, ROI 1 Tumor vessel (rabbit VX2-tumor): 95 HU
HU value, ROI 2 Vessel (rabbit VX2-tumor): 294 HU
HU value, ROI 3 Tumor vital tissue (rabbit VX2-tumor): 30 HU
HU value, ROI 4 Tumor necrotic tissue (rabbit VX2-tumor): 4 HU
HU value, ROI 5 Whole tumor (rabbit VX2-tumor): 37 HU
tumor perfusion (intra-/extravasal) (rabbit VX2-tumor; dynamic CT 0-80 s): intra- and extravasal perfusion
Damage index after incubation (erythrocytes; 0 h): 31.2%
Damage index after incubation (erythrocytes; 1 h): 12.2%
Damage index after incubation (erythrocytes; 2 h): 24.4%
LD50 (SPF-mice): > 12 g Iodine/kg bw
